Source: patent US6028068A, “Substituted 6H-1,3,4-thiadiazine-2-amines, the use thereof as anaesthetising, cardiovascular and hypometabolic agents, and a pharmaceutical composition containing them” (The Procter & Gamble Company, priority 1999, dated 2000)
Where a name gives a salt, the structure may show the parent alone.

Experiments:
[1] = Rectal (body) temperature in mice; assay type: in vivo, mice (BALB line); conditions: for Body temperature (T): Table 2, 390 mg/kg (1.0 mM/kg; 1/2 LD16)
Description: (§1) In all cases trials were carried out on mice of the BALB line of 3-4 month age. […] In the case of water-soluble compounds aqueous solutions of the test compounds were injected intraperitoneally (i.p.), while water-insoluble compounds were introduced orally (p.o.).
(§2) Rectal temperature changes (absolute magnitudes in ° C.) were measured using a medicinal electrothermometer TREM-1 (Table 1). […] The data on oxygen consumption are given an percents relative to the starting content of oxygen taken as 100 (Table 2).

physchem = assay type: physicochemical; conditions: twin-water 1:9
Description: (§3) Compound 1 was dissolved in a twin-water 1:9 (concentration of saturated solution was 40 mg/ml) and introduced intraperitoneally at the rate of 0.2 ml per 20 g of mouse weight.

[2] = Observed behavioural effects in mice after introduction; assay type: in vivo, mice (BALB line); conditions: intraperitoneally
Description: In all cases trials were carried out on mice of the BALB line of 3-4 month age. Non-toxic doses of compounds under test, varying from 60 to 400 mg/kg, were used in all experiments. In the case of water-soluble compounds aqueous solutions of the test compounds were injected intraperitoneally (i.p.), while water-insoluble compounds were introduced orally (p.o.).
as §3

[3] = Rectal temperature in rats; assay type: in vivo
[4] = Oxygen consumption in mice (closed testing unit, gas analyzer MN 5130); assay type: in vivo, mice (BALB line); conditions: for Lowering of oxygen consumption: relative to initial value; for Consumption of oxygen (O2): relative to starting content taken as 100, 390 mg/kg (1.0 mM/kg; 1/2 LD16), mice
Description: as §1, §2

[5] = Lethal dose determination (LD16, LD50, LD84) in mice; conditions: mouse, in vivo, ip

CCOC(=O)C(=NOC)C1=NN=C(N2CCOCC2)SC1 [Compound 1, Ethyl-1-methoxyimino-1-(2-morpholino-6H-1,3,4-thiadiazine-5-yl)acetate, hydrobromide]
Time to maximum temperature drop [1]: 90 to 120 min | Body temperature ([1]; 391.7 mg/kg (1.0 mM/kg) i.p., 0 minutes): 37.9 °C | Body temperature ([1]; 391.7 mg/kg (1.0 mM/kg) i.p., 30 minutes): 29.6 °C | Body temperature ([1]; 391.7 mg/kg (1.0 mM/kg) i.p., 60 minutes): 26.5 °C | Body temperature ([1]; 391.7 mg/kg (1.0 mM/kg) i.p., 90 minutes): 24.8 °C | Body temperature ([1]; 391.7 mg/kg (1.0 mM/kg) i.p., 120 minutes): 24.6 °C | Body temperature ([1]; 391.7 mg/kg (1.0 mM/kg) i.p., 180 minutes): 32.6 °C | Body temperature ([1]; 391.7 mg/kg (1.0 mM/kg) i.p., 240 minutes): 34.6 °C | Body temperature ([1]; 391.7 mg/kg (1.0 mM/kg) i.p., 300 minutes): 35.9 °C | Fall of rectal temperature ([1]; 10 minutes after introduction): 3-4 °C | Body temperature (T) ([1]; 5 minutes): 33.5 °C | Body temperature (T) ([1]; 15 minutes): 31.2 °C | Fall of rectal temperature ([1]; after 30 minutes): 7-8 °C | Temperature difference ([1]; after five hours): 2 °C | Drop of body temperature ([1]; introduced intraperitoneally): drop of body temperature | Maximum temperature drop ([1]; reached in 90-120 minutes): 12-13 °C | solubility (physchem): 40 mg/mL | Effects of introduction [2]: akiriesia, suppression of reflexes to external disturbance, lateral state of mice | Fall of rectal temperature ([3]; 10 minutes after introduction): 3-4 °C | Fall of rectal temperature ([3]; after 30 minutes): about 5 °C | Restoration of oxygen consumption ([4]; Table 2, mice): Full restoration of oxygen consumption was not observed | Lowering of oxygen consumption ([4]; at the fourth hour): 2 fold | Lowering of oxygen consumption ([4]; during the first hour): 7-10 fold | Lowering of oxygen consumption ([4]; for the next 2 hours): 3-4 fold | Consumption of oxygen (O2) ([4]; 0 minutes): 100 percents | Consumption of oxygen (O2) ([4]; 5 minutes): 8.1 percents | Consumption of oxygen (O2) ([4]; 15 minutes): 0.1 percents | Consumption of oxygen (O2) ([4]; 30 minutes): 0.2 percents | Consumption of oxygen (O2) ([4]; 60 minutes): 12.0 percents | Consumption of oxygen (O2) ([4]; 90 minutes): 27.0 percents | Consumption of oxygen (O2) ([4]; 120 minutes): 26.0 percents | Consumption of oxygen (O2) ([4]; 180 minutes): 28.0 percents | Consumption of oxygen (O2) ([4]; 240 minutes): 59.0 percents | LD16 [5]: 788.4 mg/kg | LD50 [5]: 830 mg/kg | LD84 [5]: 881.5 mg/kg

CCOC(=O)C(=NOC)C1=NN=C(N2CCSCC2)SC1 [Compound 4, Ethyl-1-methoxyimino-1-(2-thiomorpholino-6H-1,3,4-thiadiazine-5-yl)acetate, mesylate]
Body temperature ([1]; 166.0 mg/kg (0.39 mM/kg) i.p., 0 minutes): 38.1 °C | Body temperature ([1]; 166.0 mg/kg (0.39 mM/kg) i.p., 30 minutes): 33.9 °C | Body temperature ([1]; 166.0 mg/kg (0.39 mM/kg) i.p., 60 minutes): 34.9 °C | Body temperature ([1]; 166.0 mg/kg (0.39 mM/kg) i.p., 120 minutes): 35.7 °C | Body temperature ([1]; 166.0 mg/kg (0.39 mM/kg) i.p., 180 minutes): 37.4 °C

CCOC(=O)C(=NOC)C1=NN=C(N2CCOCC2)SC1 [Compound 2, Ethyl-1-methoxyimino-1-(2-morpholino-6H-1,3,4-thiadiazine-5-yl)acetate, mesylate]
Body temperature ([1]; 410.0 mg/kg (1.0 mM/kg) i.p., 0 minutes): 38.5 °C | Body temperature ([1]; 410.0 mg/kg (1.0 mM/kg) i.p., 30 minutes): 31.9 °C | Body temperature ([1]; 410.0 mg/kg (1.0 mM/kg) i.p., 60 minutes): 32.8 °C | Body temperature ([1]; 410.0 mg/kg (1.0 mM/kg) i.p., 90 minutes): 35.3 °C | Body temperature ([1]; 410.0 mg/kg (1.0 mM/kg) i.p., 120 minutes): 36.4 °C | Body temperature ([1]; 410.0 mg/kg (1.0 mM/kg) i.p., 180 minutes): 37.6 °C | Body temperature ([1]; 410.0 mg/kg (1.0 mM/kg) i.p., 240 minutes): 38.8 °C
